This passage reports Normal melting temperature results from the NIST ThermoML archive (doi:10.1016/j.fluid.2013.06.038).

The conditions of this series: Crystal; visual observation.

± gives the expanded uncertainty stated by the source.

Take `CC=CC(=O)O` [2-butenoic acid]: the Normal melting temperature was 71.7 ± 1.1 °C.
